PMC9120017, “Inhibition mechanism of the chloride channel TMEM16A by the pore blocker 1PBC” (Nature Communications, 2022)

Target: T1, mouse TMEM16F (Mus musculus, UniProt Q6P9J9)
T1 construct: expressed in transfected cells; host or cells: HEK293T
T1 sequence (Q6P9J9 1-911): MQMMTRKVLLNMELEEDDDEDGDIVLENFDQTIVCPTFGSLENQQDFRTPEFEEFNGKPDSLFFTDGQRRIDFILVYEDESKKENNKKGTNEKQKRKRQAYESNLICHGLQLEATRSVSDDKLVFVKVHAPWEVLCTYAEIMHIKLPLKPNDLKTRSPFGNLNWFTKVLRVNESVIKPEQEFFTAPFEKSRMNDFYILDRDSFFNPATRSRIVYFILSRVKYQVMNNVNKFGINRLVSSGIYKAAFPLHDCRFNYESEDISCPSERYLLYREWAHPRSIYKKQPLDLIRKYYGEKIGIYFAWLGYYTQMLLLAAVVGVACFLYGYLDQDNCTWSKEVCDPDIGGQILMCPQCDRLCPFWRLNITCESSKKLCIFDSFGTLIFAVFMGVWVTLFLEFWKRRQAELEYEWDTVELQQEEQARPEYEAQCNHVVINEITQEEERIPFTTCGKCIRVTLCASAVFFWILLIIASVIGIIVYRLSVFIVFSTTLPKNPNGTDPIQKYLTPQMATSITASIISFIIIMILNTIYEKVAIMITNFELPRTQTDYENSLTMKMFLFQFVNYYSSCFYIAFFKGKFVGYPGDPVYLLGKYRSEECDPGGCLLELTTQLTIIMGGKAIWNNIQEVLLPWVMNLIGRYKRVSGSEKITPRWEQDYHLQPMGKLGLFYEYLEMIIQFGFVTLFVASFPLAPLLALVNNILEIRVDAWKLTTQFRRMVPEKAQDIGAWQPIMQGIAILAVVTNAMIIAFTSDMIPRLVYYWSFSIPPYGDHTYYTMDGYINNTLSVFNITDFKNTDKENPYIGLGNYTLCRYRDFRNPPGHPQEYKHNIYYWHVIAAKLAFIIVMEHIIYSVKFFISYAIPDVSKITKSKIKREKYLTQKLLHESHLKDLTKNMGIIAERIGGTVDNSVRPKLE
Test: Inside-out patch recording of 1PBC block, TMEM16F
Type: cell-based
Conditions: 300 µM Ca2+
Description: HEK293T cells (ATCC CRL-1573) were maintained in Dulbecco’s modified Eagle’s medium (DMEM; Sigma-Aldrich) supplemented with 10 U ml^−1 penicillin, 0.1 mg ml^−1 streptomycin (Sigma-Aldrich), 2 mM L-glutamine (Sigma-Aldrich), and 10% FBS (Sigma-Aldrich) in a humidified atmosphere containing 5% CO2 at 37 °C. HEK293S GnTI^− cells (ATCC CRL-3022) were maintained in HyClone HyCell TransFx-H medium (GE Healthcare) supplemented with 10 U ml^−1 penicillin, 0.1 mg ml^−1 streptomycin, 4 mM L-glutamine, 0.15% poloxamer 188 (Sigma-Aldrich), and 1% FBS in an atmosphere containing 5% CO2 at 185 rpm at 37 °C. The ac splice variant of mouse TMEM16A (UniProt ID: Q8BHY3), mouse TMEM16B (UniProt ID: Q8CFW1), or mouse TMEM16F (UniProt ID: Q6P9J9) bearing a 3C cleavage site, a Venus YFP, a Myc tag, and a Streptavidin-binding peptide (SBP) downstream of the open reading frame in a modified pcDNA3.1 vector (Invitrogen) were used as described previously[21],[31]. Mutations were introduced using a modified QuikChange method[58] and were verified by sequencing.
HEK293T cells were transfected with 3–4 μg DNA per 6 cm Petri dish using the calcium phosphate co-precipitation method and were used within 24–96 h after transfection. Recordings were performed on inside-out patches excised from HEK293T cells expressing the construct of interest. Patch pipettes were pulled from borosilicate glass capillaries (O.D. 1.5 mm, I.D. 0.86 mm, Sutter Instrument) and were fire-polished with a microforge (Narishige) before use. Pipette resistance was typically 3–8 MΩ when filled with the recording solutions detailed below. Seal resistance was typically 4 GΩ or higher. Voltage-clamp recordings were made using Axopatch 200B, Digidata 1550, and Clampex 10.7 (Molecular Devices). Analog signals were filtered with the in-built 4-pole Bessel filter at 10 kHz and were digitized at 20 kHz. Solution exchange was achieved using a gravity-fed system through a theta glass pipette mounted on an ultra-fast piezo-driven stepper (Siskiyou). […] All recordings were performed at 20 °C.
A symmetrical ionic condition was used throughout. Stock solution with Ca^2+-EGTA contained 150 mM NaCl, 5.99 mM Ca(OH)2, 5 mM EGTA, and 10 mM HEPES at pH 7.40. Stock solution with EGTA contained 150 mM NaCl, 5 mM EGTA, and 10 mM HEPES at pH 7.40. Free Ca^2+ concentrations were adjusted by mixing the stock solutions at the required ratios calculated using the WEBMAXC program (http://web.stanford.edu/~cpatton/webmaxcS.htm). Patch pipettes were filled with the stock solution with Ca^2+-EGTA, which has a free Ca^2+ concentration of 1 mM. 1PBC (ChemBridge) stock was reconstituted in anhydrous DMSO (Sigma-Aldrich) at 100 mM and stored at −20 °C. Working solutions with 1PBC were prepared by serial dilution. Unless otherwise stated, experiments were performed at a saturating Ca^2+ concentration as shown in Supplementary Table 1 and the primary data were corrected for current rundown as described previously[21],[25].
Concentration-response relations, obtained from the ratio of the I-V plots before and after the application of the blocker, were fitted to the Hill equation,1 I/Imax=1/1+IC50/[blocker]^h where I/Imax is the normalized current responses, IC50 defines the concentration at which inhibition is at its half-maximum, and h is the Hill coefficient.

remaining activity at 3 µM (3 µM 1PBC, +80 mV, read-out: I/Imax): 100% | remaining activity at 10 µM (10 µM 1PBC, +80 mV, read-out: I/Imax): 98.7% | remaining activity at 30 µM (30 µM 1PBC, +80 mV, read-out: I/Imax): 101% | remaining activity at 100 µM (100 µM 1PBC, +80 mV, read-out: I/Imax): 100% | Inhibition of the current mediated by the scramblase TMEM16F (within the same concentration range): ineffective
SMILES: N#Cc1c(C(F)(F)F)cc(O)n2c1nc1ccccc12 [1PBC]
